Like-named read-outs stand apart in the source and are kept apart here. Where a SMILES comes first, the peptide text is derived from it. [ ]: non-standard residue; d: D form. The star is where a group is joined. Lauroyl = CCCCCCCCCCCC(=O)*; Hexanoyl = CCCCCC(=O)*
Columns and labels:
horse erythrocytes [1] = tested on: horse erythrocytes; design: method as in earlier work; details: all-L parent lipopeptides, ± confidence interval (α = 0.05), cited from earlier work
tobacco leaves [2] = tested on: tobacco leaves; design: method as in earlier work; details: all-L parent lipopeptides, ± confidence interval, cited from earlier work
horse erythrocytes [3] = experiment: Hemolytic activity (hemoglobin release from erythrocytes); assay type: cell-based; details: 37 °C, relative to melittin, ± confidence interval (α = 0.05)
Method: The hemolytic activity of the compounds was evaluated by determining hemoglobin release from erythrocyte suspensions of horse blood (5% vol/vol) (Oxoid) as previously described. Blood was centrifuged at 6000 g for 5 min, washed three times with tris(hydroxymethyl)aminomethane (TRIS) buffer (10 mM TRIS, 150 mM NaCl, pH 7.2) and diluted 10 times. Compounds were solubilized in TRIS buffer at 750, 500, 300 and 100 μM and mixed with horse erythrocytes (1:1 v/v). The mixture was incubated under continuous shaking for 1 h at 37 °C. Then, the tubes were centrifuged at 3500 g for 10 min, 80 μL aliquots of the supernatant transferred to 100-well microplates (Bioscreen), diluted with 80 μL water, and the absorbance measured at 540 nm (Bioscreen). Complete hemolysis was obtained by the addition of melittin at 100 μM (Sigma-Aldrich Corporation, Madrid, Spain). The percentage of hemolysis (H) was calculated using the equation: H = 100 × [(Op−Ob)/(Om−Ob)], where Op is the density for a given compound concentration, Ob for the buffer, and Om for the melittin-positive control.

tobacco leaves [4] = experiment: Effect of peptide infiltration on tobacco leaves (lesion size); assay type: in vivo; details: ± confidence interval; for Size of the lesion (mm) 50 µM: 100 µL infiltrated into mesophyll of tobacco leaves
Method: The lipopeptides were evaluated for their effect upon infiltration on tobacco leaves as described previously. Peptide solutions of 50, 150 and 250 μM were infiltrated (100 μL) into the mesophylls of fully expanded tobacco leaves. Infiltrations were carried out in a single leaf, and for each peptide and dose, at least three leaves randomly distributed in different plants were infiltrated. Control infiltrations with water (negative control) or melittin (positive control) at the same molar concentration were performed. The appearance of symptoms on the leaves was followed for 48 h after infiltration and measured as a lesion diameter.

[5] = D-amino acid lipopeptides, lesion diameter, 48 h, at least three leaves
[6] = D-amino acid lipopeptides, 100 µL infiltrated into tobacco leaves, lesion diameter, 48 h, at least three leaves
[7] = D-amino acid lipopeptides, 250 µM, 100 µL infiltrated into tobacco leaves, lesion diameter, 48 h, at least three leaves
[8] = Table 2, 250 µM infiltrated into tobacco leaves

Molecule | Hemolysis (%) 50 µM (horse erythrocytes [1]; 50 µM) [%] | Hemolysis (%) 250 µM (horse erythrocytes [1]; 250 µM) [%] | Hemolysis (%) 375 µM (horse erythrocytes [1]; 375 µM) [%] | Size of the lesion (mm) 50 µM (tobacco leaves [2]; 50 µM) [mm] | Size of the lesion (mm) 150 µM (tobacco leaves [2]; 150 µM) [mm] | Size of the lesion (mm) 250 µM (tobacco leaves [2]; 250 µM) [mm] | Hemolysis (%) 250 µM (horse erythrocytes [3]; D-amino acid lipopeptides, 250 µM, TRIS buffer pH 7.2, 1 h) [%] | Hemolysis (%) 375 µM (horse erythrocytes [3]; D-amino acid lipopeptides, 375 µM, TRIS buffer pH 7.2, 1 h) [%] | Size of the lesion (mm) 50 µM (tobacco leaves [4]; [5]) [mm] | Size of the lesion (mm) 150 µM (tobacco leaves [4]; [6]) [mm] | Size of the lesion (mm) 250 µM (tobacco leaves [4]; [7]) [mm] | Size of the lesion (mm) 250 µM (tobacco leaves [4]; [8]) [mm] | Hemolysis (%) 250 µM (horse erythrocytes [3]; Table 2, 250 µM, 1 h) [%]
Ac-KKLFKKILKK(COC3H7)L-NH2 [BP389, analog of BP475 with all L-amino acids] | 9 ± 4 | 22 ± 2 | 39 ± 3 | 4 ± 1 | 7 ± 1 | 9 ± 3 |  |  |  |  |  |  | 
CCCCCCCCCCCC(=O)NCCCC[C@H](NC(=O)[C@H](Cc1ccc(O)cc1)NC(=O)[C@H](CCCCN)NC(=O)[C@H](CC(C)C)NC(=O)[C@@H](NC(=O)[C@H](CCCCN)NC(=O)[C@H](CCCCN)NC(=O)[C@@H](Cc1ccccc1)NC(=O)[C@H](CC(C)C)NC(=O)[C@H](CCCCN)NC(=O)[C@H](CCCCN)NC(C)=O)[C@@H](C)CC)C(N)=O [BP476, Ac-KKLfKKILKYK(COC11H23)-NH2] (Ac-KKL[dF]KKILKYK(Lauroyl)-NH2) |  |  |  |  |  |  | 94 ± 10 | 94 ± 67 | 3 ± 0.6 | 3 ± 0.5 | 5 ± 0.5 | 5 ± 0.5 | 
CCCCCC(=O)NCCCC[C@H](NC(=O)[C@H](Cc1ccc(O)cc1)NC(=O)[C@H](CCCCN)NC(=O)[C@H](CC(C)C)NC(=O)[C@@H](NC(=O)[C@H](CCCCN)NC(=O)[C@H](CCCCN)NC(=O)[C@@H](Cc1ccccc1)NC(=O)[C@H](CC(C)C)NC(=O)[C@H](CCCCN)NC(=O)[C@H](CCCCN)NC(C)=O)[C@@H](C)CC)C(N)=O [BP495, Ac-KKLfKKILKYK(COC5H11)-NH2] (Ac-KKL[dF]KKILKYK(Hexanoyl)-NH2) |  |  |  |  |  |  |  |  | 3 ± 0 | 6 ± 2 | 11 ± 2 | 11 ± 2 | 0.6 ± 1
